Molecules are shown by their SMILES.

The target in the assay is T1, procaspase-6 (Homo sapiens, UniProt P55212).
T1 sequence (P55212 1-293): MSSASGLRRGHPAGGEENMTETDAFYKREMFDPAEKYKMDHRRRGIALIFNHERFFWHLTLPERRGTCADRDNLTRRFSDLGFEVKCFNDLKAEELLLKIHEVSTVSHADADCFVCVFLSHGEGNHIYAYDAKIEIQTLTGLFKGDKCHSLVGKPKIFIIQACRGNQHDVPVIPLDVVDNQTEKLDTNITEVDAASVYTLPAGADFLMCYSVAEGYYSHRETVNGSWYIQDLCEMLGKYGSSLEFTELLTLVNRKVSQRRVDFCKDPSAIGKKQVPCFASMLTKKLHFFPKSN
In words: SPR binding affinity for procaspase-6 (avi-tagged, biotinylated construct on neutravidin chip, Biacore 8K). As to conditions: binding affinities for procaspase-6, SPR. The text has this: We used SPR to assess the binding affinity of test compounds, using an avi-tagged (biotinylated) procaspase-6 construct that was captured onto a neutravidin-coated sensor chip in a Biacore 8K instrument. […] The average of the triplicate KD values for each analog was furthermore used to calculate the experimental binding energies (ΔG) provided in the figures that follow.
`Fc1ccc(CNc2ncccc2-c2ncc[nH]2)c2sccc12` [ELG-000530, N-((4-fluorobenzo[b]thiophen-7-yl)methyl)-3-(1H-imidazol-2-yl)pyridin-2-amine]: the Kd was in the range of 10 to 50 µM.

As to `c1ccc(-c2cccnc2NCc2cccc3cnoc23)nc1` [ELG-000567, N-(benzo[d]isoxazol-7-ylmethyl)-[2,3′-bipyridin]-2′-amine], the dissociation constant Kd fell in the range of 50 to 100 µM.

In turn, `c1ccc(-c2cccnc2NCc2cccc3cc[nH]c23)nc1` [ELG-000463] returned a Kd of 50 to 100 µM.

`Fc1ccc(CNc2ncccc2-c2ccccn2)c2[nH]ccc12` [ELG-000483] displayed a Kd of 50 to 100 µM.

Regarding `Fc1ccc(CNc2ncccc2-c2ccccn2)c2occc12` [ELG-000469, N-((4-fluorobenzofuran-7-yl)methyl)-[2,3′-bipyridin]-2′-amine], the Kd is 50 to 100 µM.

Regarding `c1cnnc(-c2cccnc2NCc2cccc3ccoc23)c1` [ELG-000488, N-(benzofuran-7-ylmethyl)-3-(pyridazin-3-yl) pyridin-2-amine], the Kd was in the range of 10 to 50 µM.

With `Fc1ccc(CNc2ncccc2-c2ccccn2)c2[nH]ncc12` [ELG-000499, N-((4-fluoro-1H-indazol-7-yl)methyl)-[2,3′-bipyridin]-2′-amine], the Kd was < 10 µM.

The molecule `c1ccc(-c2cccnc2NCc2cccc3cnsc23)nc1` [ELG-000552, N-(benzo[d]isothiazol-7-ylmethyl)-[2,3′-bipyridin]-2′-amine] returned a Kd of 50 to 100 µM.

`Fc1ccc(CNc2ncccc2-c2ncc[nH]2)c2ncsc12` [ELG-000526, N-((7-fluorobenzo[d]thiazol-4-yl)methyl)-3-(1H-imidazol-2-yl)pyridin-2-amine] gave a dissociation constant Kd of 10 to 50 µM.

Consider `Fc1ccc(CNc2ncccc2-c2cccnn2)c2[nH]ccc12` [ELG-000504, N-((4-fluoro-1H-indol-7-yl)methyl)-3-(pyridazin-3-yl)pyridin-2-amine], for which the Kd is < 10 µM.

In the case of `c1ccc(-c2cccnc2NCc2cccc3scnc23)nc1` [ELG-000511], the Kd was in the range of 50 to 100 µM.

In turn, `Fc1ccc(CNc2ncccc2-c2cccnn2)c2occc12` [ELG-000481, N-((4-fluorobenzofuran-7-yl)methyl)-3-(pyridazin-3-yl)pyridin-2-amine] returned a Kd of 10 to 50 µM.

Turning to `Fc1ccc(CNc2ncccc2-c2cccnn2)c2sccc12` [ELG-000515, N-((4-fluorobenzo[b]thiophen-7-yl)methyl)-3-(pyridazin-3-yl)pyridin-2-amine], the Kd is < 10 µM.

`Fc1ccc(CNc2ncccc2-c2cccnn2)c2sncc12` [ELG-000532, N-((4-fluorobenzo[d]isothiazol-7-yl)methyl)-3-(pyridazin-3-yl)pyridin-2-amine] displayed a Kd of 10 to 50 µM.

For `c1ccc(-c2cccnc2NCc2cccc3ccoc23)nc1` [ELG-000468, N-(benzofuran-7-ylmethyl)-[2,3′-bipyridin]-2′-amine], the Kd lay in the range of 50 to 100 µM.

In turn, `c1ccc(-c2cccnc2NCc2cccc3ocnc23)nc1` [ELG-000497] registered a Kd of 50 to 100 µM.

Regarding `Fc1ccc(CNc2ncccc2-c2ncc[nH]2)c2[nH]ccc12` [ELG-000536, N-((4-fluoro-1H-indol-7-yl)methyl)-3-(1H-imidazol-2-yl)pyridine-2-amine], the Kd fell in the range of 10 to 50 µM.

For `Fc1ccc(CNc2ncccc2-c2cccnn2)c2[nH]ncc12` [ELG-000506, N-((4-fluoro-1H-indazol-7-yl)methyl)-3-(pyridazin-3-yl)pyridin-2-amine], the Kd was < 10 µM.

On to `c1cnc(NCc2cccc3ccsc23)c(-c2ncc[nH]2)c1` [ELG-000534, N-(benzo[b]thiophen-7-ylmethyl)-3-(1H-imidazol-2-yl)pyridin-2-amine], for which the equilibrium dissociation constant (Kd) was > 100 µM.

`c1cnnc(-c2cccnc2NCc2cccc3cnoc23)c1` [ELG-000563]: the Kd fell in the range of 50 to 100 µM.

The molecule `c1cnc(NCc2cccc3ccoc23)c(-c2ncc[nH]2)c1` [ELG-000535] registered a Kd of 50 to 100 µM.

Take `Fc1ccc(CNc2ncccc2-c2ncc[nH]2)c2[nH]ncc12` [ELG-000525, N-((4-fluoro-1H-indazol-7-yl)methyl)-3-(1H-imidazol-2-yl)pyridin-2-amine]: the Kd is < 10 µM.

Turning to `Fc1ccc(CNc2ncccc2-c2ncc[nH]2)c2sncc12` [ELG-000548], the Kd is 50 to 100 µM.

With `Fc1ccc(CNc2ncccc2-c2cccnn2)c2ncsc12` [ELG-000522, N-((7-fluorobenzo[d]thiazol-4-yl)methyl)-3-(pyridazin-3-yl)pyridin-2-amine], the Kd is < 10 µM.

For `c1cnnc(-c2cccnc2NCc2cccc3cnsc23)c1` [ELG-000559], the Kd lay within 50 to 100 µM.

Take `Fc1ccc(CNc2ncccc2-c2ccccn2)c2sncc12` [ELG-000549, N-((4-fluorobenzo[d]isothiazol-7-yl)methyl)-[2,3′-bipyridin]-2′-amine]: the Kd was > 100 µM.

In the case of `c1cnc(NCc2cccc3ocnc23)c(-c2ncc[nH]2)c1` [ELG-000537, N-(benzo[d]oxazol-4-ylmethyl)-3-(1H-imidazol-2-yl)pyridin-2-amine], the Kd was 50 to 100 µM.

The molecule `c1cnc(NCc2cccc3cn[nH]c23)c(-c2ncc[nH]2)c1` [ELG-000538, N-((1H-indazol-7-yl)methyl)-3-(1H-imidazol-2-yl)pyridin-2-amine] had a Kd of 10 to 50 µM.

Take `c1ccc(-c2cccnc2NCc2cccc3cn[nH]c23)nc1` [ELG-000472, N-((1H-indazol-7-yl)methyl)-[2,3′-bipyridin]-2′-amine]: the Kd was 50 to 100 µM.

Take `c1cnnc(-c2cccnc2NCc2cccc3ocnc23)c1` [ELG-000491, N-(benzo[d]oxazol-4-ylmethyl)-3-(pyridazin-3-yl)pyridin-2-amine]: the Kd is < 10 µM.

The molecule `c1ccc(-c2cccnc2NCc2cccc3ccsc23)nc1` [ELG-000510, N-(benzo[b]thiophen-7-ylmethyl)-[2,3′-bipyridin]-2′-amine] gave a Kd of 50 to 100 µM.

On to `c1cnnc(-c2cccnc2NCc2cccc3scnc23)c1` [ELG-000507, N-(benzo[d]thiazol-4-ylmethyl)-3-(pyridazin-3-yl)pyridin-2-amine], for which the Kd was < 10 µM.

Turning to `c1cnc(NCc2cccc3scnc23)c(-c2ncc[nH]2)c1` [ELG-000531, N-(benzo[d]thiazol-4-ylmethyl)-3-(1H-imidazol-2-yl)pyridin-2-amine], the Kd is 50 to 100 µM.

Molecule `c1cnc(NCc2cccc3cc[nH]c23)c(-c2ncc[nH]2)c1` [ELG-000523, N-((1H-indol-7-yl)methyl)-3-(1H-imidazol-2-yl)pyridin-2-amine] registered a Kd of 10 to 50 µM.

In turn, `c1cnc(NCc2cccc3cnoc23)c(-c2ncc[nH]2)c1` [ELG-000560, N-(benzo[d]isoxazol-7-ylmethyl)-3-(1H-imidazol-2-yl)pyridin-2-amine] gave a Kd of 10 to 50 µM.

Turning to `Fc1ccc(CNc2ncccc2-c2ccccn2)c2sccc12` [ELG-000518], the Kd was in the range of 50 to 100 µM.

Take `c1cnnc(-c2cccnc2NCc2cccc3ccsc23)c1` [ELG-000502, N-(benzo[b]thiophen-7-ylmethyl)-3-(pyridazin-3-yl)pyridin-2-amine]: the Kd fell in the range of 10 to 50 µM.

For `c1cnc(NCc2cccc3cnsc23)c(-c2ncc[nH]2)c1` [ELG-000558], the Kd was 50 to 100 µM.

What is called Kd is the equilibrium constant for the complex coming apart.

Values taken from patent publication US20260200893A1, “INHIBITORS OF PROCASPASE-6 ACTIVATION AND USES THEREOF” (THE REGENTS OF THE UNIVERSITY OF CALIFORNIA, priority 2022, published 2026).
